The text below walks through data of ChEMBL document CHEMBL3046521, “Synthesis and antitumor activity of (4-hydroxyphenyl)[5-substituted alkyl/aryl)-2-thioxo-1,3,4-thiadiazol-3-yl]methanone and [(3,4-disubstituted)-1,3-thiazol-2ylidene]-4-hydroxybenzohydrazide” (2011).

Holding throughout (assay type): functional
A short description of test [1]: Anticancer activity in Homo sapiens (human) NCI-ADR-RES cells assessed as cell growth at 10^-5 M after 48 hr by SRB assay. As to conditions: read-out: Activity.
The subject of test [2] is CAKI-1. The test is described as follows: Cytotoxicity against Homo sapiens (human) Caki1 cells after 48 hr by sulforhodamine B assay. Particulars: CAKI-1, 48 h; for TGI: read-out: pTGI (converted). Background: The SRB assay estimates cell density from bound dye.
Test [3] has as its system MCF7. The test is described as follows: Cytotoxicity against Homo sapiens (human) MCF7 cells after 48 hr by sulforhodamine B assay. Particulars: MCF7, 48 h.
Test [4] relates to HCT-116. The test is described as follows: Cytotoxicity against Homo sapiens (human) HCT116 cells after 48 hr by sulforhodamine B assay. Particulars: HCT-116, 48 h.
Test [5] concerns SF-295. The test is described as follows: Cytotoxicity against Homo sapiens (human) SF295 cells after 48 hr by sulforhodamine B assay. Particulars: SF-295, 48 h; for TGI: read-out: pTGI (converted).
For test [6], the system named is HOP-92. The test is described as follows: Cytotoxicity against Homo sapiens (human) HOP92 cells after 48 hr by sulforhodamine B assay. Particulars: HOP-92, 48 h; for TGI: read-out: pTGI (converted).
The subject of test [7] is OVCAR-3. The test is described as follows: Cytotoxicity against Homo sapiens (human) OVCAR3 cells after 48 hr by sulforhodamine B assay. Particulars: OVCAR-3, 48 h.
The test system of test [8] is HL-60(TB). The test is described as follows: Cytotoxicity against Homo sapiens (human) HL-60(TB) cells after 48 hr by sulforhodamine B assay. As to conditions: HL-60, 48 h; for CC50: read-out: pLC50 (the source's name) (converted); for TGI: read-out: pTGI (converted).
In test [9] the test system is Malme-3M. The test is described as follows: Cytotoxicity against Homo sapiens (human) MALME-3M cells after 48 hr by sulforhodamine B assay.
For test [10], the system named is PC-3. The test is described as follows: Cytotoxicity against Homo sapiens (human) PC3 cells after 48 hr by sulforhodamine B assay. Particulars: PC-3, 48 h; for TGI: read-out: pTGI (converted).
The nature of test [11]: Cytotoxicity against Homo sapiens (human) NCI-ADR-RES cells after 48 hr by sulforhodamine B assay.
The subject of test [12] is KM12. The test is described as follows: Cytotoxicity against Homo sapiens (human) KM12 cells after 48 hr by sulforhodamine B assay. Particulars: KM12, 48 h.
Test [13] concerns HCC 2998. The test is described as follows: Anticancer activity in Homo sapiens (human) HCC2998 cells assessed as cell growth at 10^-5 M after 48 hr by SRB assay. As to conditions: HCC 2998, 48 h, read-out: Activity.
Test [14] has as its system CCRF-CEM. The test is described as follows: Cytotoxicity against Homo sapiens (human) CCRF-CEM cells after 48 hr by sulforhodamine B assay.
The subject of test [15] is MDA-MB-435. The test is described as follows: Cytotoxicity against Homo sapiens (human) MDA-MB-435 cells after 48 hr by sulforhodamine B assay. Particulars: MDA-MB-435, 48 h.
In test [16] the test system is NCI-H522. The test is described as follows: Cytotoxicity against Homo sapiens (human) NCI-H522 cells after 48 hr by sulforhodamine B assay. As to conditions: NCI-H522, 48 h.
For test [17], the system named is HCC 2998. The test is described as follows: Cytotoxicity against Homo sapiens (human) HCC2998 cells after 48 hr by sulforhodamine B assay. As to conditions: HCC 2998, 48 h.
In test [18] the test system is MDA-MB-468. The test is described as follows: Cytotoxicity against Homo sapiens (human) MDA-MB-468 cells after 48 hr by sulforhodamine B assay. Particulars: MDA-MB-468, 48 h.
The subject of test [19] is CAKI-1. The test is described as follows: Anticancer activity in Homo sapiens (human) Caki1 cells assessed as cell growth at 10^-5 M after 48 hr by SRB assay. Particulars: CAKI-1, 48 h, read-out: Activity.
The test system of test [20] is LOX IMVI. The test is described as follows: Anticancer activity in Homo sapiens (human) LOXIMVI cells assessed as cell growth at 10^-5 M after 48 hr by SRB assay. As to conditions: read-out: Activity.

The structures appear in SMILES notation.

Consider `COc1ccc(-n2c(-c3ccc(Cl)cc3)cs/c2=N\NC(=O)c2ccc(O)cc2)c(OC)c1`, for which, in [1], the growth at 10 µM was -1.18%. Besides, the GI50 (usually the concentration that inhibits growth by half) in test [2] was 22.9 µM; in test [3] it was 25.1 µM; in test [4] it was 27.5 µM; in test [5], 27.5 µM; in test [6], 14.5 µM; in test [7], 26.9 µM. Further, the GI50 is 17.8 µM in [8], 25.1 µM in [9] and 18.2 µM in [10]. Further, the LC50 in test [2], in test [3], in [4], in [5], in test [6] and in [7] was above 100 µM each time. Also, the median lethal concentration (LC50) in [9] and in test [10] was above 100 µM each time. Further, the TGI in test [2] is above 100 µM; in test [3] (read-out: pTGI (converted)), above 100 µM; in test [4] (read-out: pTGI (converted)) it was above 100 µM; in test [5], above 100 µM; in test [6] it was 64.6 µM; in [7] (read-out: pTGI (converted)), 83.2 µM. Further, the figures for the TGI in [8], in test [9] (read-out: pTGI (converted)) and in [10] were 81.3 µM, 91.2 µM and above 100 µM, respectively. Besides, in test [8], the CC50 was above 100 µM.

For the compound `O=C(N/N=c1\scc(-c2ccc(Cl)cc2)n1-c1ccc(Cl)cc1Cl)c1ccc(O)cc1`, the 50% growth inhibitory concentration (GI50) in test [11] was 2.95 µM; in test [2] it was 3.31 µM; in test [12] it was 2.63 µM; in test [14], 0.977 µM; in test [5], 2.82 µM; in test [15] it was 2.88 µM. The GI50 in test [6] was 2.95 µM; in test [8] it was 0.302 µM; in [16], 2.57 µM; in [10], 3.39 µM; in [17], 1.95 µM; in test [18], 3.89 µM. The LC50 (usually the concentration lethal to half of the exposed cells or organisms) in test [11] is above 100 µM; in test [2], above 100 µM; in [12], 87.1 µM; in test [14] it was above 100 µM; in test [5], above 100 µM; in [15] it was above 100 µM. Moreover, the LC50 in test [6] was 49 µM; in test [16], above 100 µM; in test [10] it was above 100 µM; in test [17], 53.7 µM; in [18] it was above 100 µM. The TGI in [11] (read-out: pTGI (converted)) is 8.32 µM; in test [2], 52.5 µM; in test [12] (read-out: pTGI (converted)), 8.51 µM; in [14] (read-out: pTGI), above 100 µM; in test [5] it was 9.77 µM; in test [15] (read-out: pTGI (converted)), 22.9 µM. In addition, the TGI was 7.59 µM in test [6]; 38 µM in test [8]; 20 µM in test [16] (read-out: pTGI (converted)); above 100 µM in [10]; 5.25 µM in test [17] (read-out: pTGI (converted)); above 100 µM in test [18] (read-out: pTGI (converted)). The growth at 10 µM in test [13] was -1.56%. Moreover, the CC50 in [8] is above 100 µM.

As for `COc1ccc(-c2nn(C(=O)c3ccc(O)cc3)c(=S)s2)cc1`, the growth at 10 µM in test [19] was 68%.

For `O=C(c1ccc(O)cc1)n1nc(-c2ccc(O)cc2)sc1=S`, the growth at 10 µM in test [20] is -0.61%.
